# Experimental data reported in patent publication US12187728B2 (Raze Therapeutics, Inc., priority 2015, dated 2025).
# Target: T1, Human MTHFD2 (Homo sapiens, UniProt P13995)
# T1 construct: residues 36-350 in Uniport ID P13995; His6 (N); made in house; host or cells: E. coli
# T1 sequence (P13995 36-350): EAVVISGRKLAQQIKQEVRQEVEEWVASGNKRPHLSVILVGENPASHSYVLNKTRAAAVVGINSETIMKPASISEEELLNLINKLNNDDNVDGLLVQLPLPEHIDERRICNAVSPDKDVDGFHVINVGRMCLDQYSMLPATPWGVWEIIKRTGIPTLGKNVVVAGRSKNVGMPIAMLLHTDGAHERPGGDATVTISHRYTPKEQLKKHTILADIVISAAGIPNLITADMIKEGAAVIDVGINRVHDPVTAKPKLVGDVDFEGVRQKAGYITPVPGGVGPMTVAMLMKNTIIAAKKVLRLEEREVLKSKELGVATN
# Assay: MTHFD2 Activity Assay (dehydrogenase activity, diaphorase/resazurin coupled fluorescence)
# Assay type: biochemical
# Details: inhibitory activity (IC50 and/or binding constant); 0.2 nM MTHFD2, 11 concentrations
# How it was run: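 Resorufin fluorescence (ex 525, em 598 nm) reports NADH formed by the dehydrogenase via diaphorase coupling. Enzyme (0.2 nM, residues 36-350, N-His6) sat with compound 15 min before 70 μM CH2-THF and 1 mM NAD+ started a 30 min reaction. IC50s come from 4-parameter fits over 11 concentrations.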
row,Compound,IC50 [µM]
1,"Cc1c(Cn2c(=O)c3c(nc(Nc4ccncc4)n3C)n(C)c2=O)[nH]c2ccccc12 [Example 340, 3,7-dimethyl-1-((3-methyl-1H-indol-2-yl)methyl)-8-(pyridin-4-ylamino)-1H-purine-2,6(3H,7H)-dione]",0.01 to 1
2,"Cn1c(Nc2cccnc2)nc2c1c(=O)n(Cc1cc3c(Cl)cccc3[nH]1)c(=O)n2C [Example 343, 1-((4-chloro-1H-indol-2-yl)methyl)-3,7-dimethyl-8-(pyridin-3-ylamino)-1H-purine-2,6(3H,7H)-dione]",0.01 to 1
3,"Cn1c(Nc2ccnc(C3CC(O)C3)c2)nc2c1c(=O)n(Cc1ccc(Cl)c(Cl)c1)c(=O)n2C (stereo not drawn) [Example 344, 1-(3,4-diclorobenzyl)-8-(2-(3-hydroxylcyclobutyl)pyridine-4-ylamino)-3,7-dimethyl-1-H-purine-2,6(3H,7H)-dione]",1 to 5
4,"Cn1c(Nc2cccc(C(=O)O)c2)nc2c1c(=O)n(Cc1cc3c(Cl)cccc3[nH]1)c(=O)n2C [Example 346, 3-[[1-[(4-chloro-1H-indol-2-yl)methyl]-3,7-dimethyl-2,6-dioxo-purin-8-yl]amino]benzoic acid]",0.01 to 1
5,"Cn1c(N[C@H]2CCC[C@H]2O)nc2c1c(=O)n(Cc1cc3c(Cl)cccc3[nH]1)c(=O)n2C [Example 347, 1-((4-chloro-1H-indol-2-yl)methyl)-8-((1S,2R)-2-hydroxycyclopentylamino)-3,7-dimethyl-1H-purine-2,6(3H,7H)-dione]",0.01 to 1
6,"Cn1c(Nc2ccncc2)nc2c1c(=O)n(Cc1ccc3ccccc3c1)c(=O)n2C [Example 349, 3,7-dimethyl-1-(naphthalen-2-ylmethyl)-8-(pyridin-4-ylamino)-1H-purine-2,6(3H,7H)-dione]",0.01 to 1
7,"Cn1c(Nc2cccc(C3CCC(O)C3)n2)nc2c1c(=O)n(Cc1cc3c(Cl)cccc3[nH]1)c(=O)n2C (stereo not drawn) [Example 351, 1-((4-chloro-1H-indol-2-yl)methyl)-8-(6-(3-hydroxycyclopentyl)pyridin-2-ylamino)-3,7-dimethyl-1H-purine 2,6(3H,7H)-dione]",0.01 to 1
8,"Cn1c(-n2c(N)nc3ccccc32)nc2c1c(=O)n(Cc1cc3c(Cl)cccc3[nH]1)c(=O)n2C [Example 353, 8-(2-amino-1H-benzo[d]imidazol-1-yl)-1-((4-chloro-1H-indol-2-yl)methyl)-3,7-dimethyl-1H-purine-2,6(3H,7H)-dione]",1 to 5
9,"Cn1c(Nc2ccnc(CCC(=O)O)n2)nc2c1c(=O)n(Cc1cc3c(Cl)cccc3[nH]1)c(=O)n2C [Example 355, 3-(4-(1-((4-chloro-1H-indol-2-yl)methyl)-3,7-dimethyl-2,6-dioxo-2,3,6,7-tetrahydro-1H-purin-8-ylamino)pyrimidin-2-yl)propanoic acid]",0.01 to 1
10,"Cn1c(Nc2ncc[nH]2)nc2c1c(=O)n(Cc1cc3c(Cl)cccc3[nH]1)c(=O)n2C [Example 356, 1-[(4-chloro-1H-indol-2-yl)methyl]-8-(1H-imidazol-2-ylamino)-3,7-dimethyl-purine-2,6-dione]",0.01 to 1
11,Cn1c(N[C@@H]2CCC[C@@H]2O)nc2c1c(=O)n(Cc1cc3c(Cl)cccc3[nH]1)c(=O)n2C [Example 359],0.01 to 1
12,"Cn1c(Nc2ccncc2)nc2c1c(=O)n(Cc1cc3cccc(F)c3[nH]1)c(=O)n2C [Example 366, 1-[(7-fluoro-1H-indol-2-yl)methyl]-3,7-dimethyl-8-(4-pyridylamino)purine-2,6-dione]",0.01 to 1
13,"Cn1c(Nc2ccc(S(C)(=O)=O)cc2)nc2c1c(=O)n(Cc1cc3c(Cl)cccc3[nH]1)c(=O)n2C [Example 367, 1-[(4-chloro-1H-indol-2-yl)methyl]-3,7-dimethyl-8-(4-methylsulfonylanilino)purine-2,6-dione]",0.01 to 1
14,"Cn1c(=O)n(Cc2ccc(Cl)c(Cl)c2)c(=O)c2c1nc(NC1CCCC(C(=O)O)C1)n2CCN (stereo not drawn) [Example 369, 3-(7-(2-aminoethyl)-1-(3,4-dichlorobenzyl)-3-methyl-2,6-dioxo-2,3,6,7-tetrahydro-1H-purin-8-ylamino)cyclohexanecarboxylic acid]",0.01 to 1
15,"Cn1c(Nc2ccncc2)nc2c1c(=O)n(Cc1ccc3ccccc3c1Cl)c(=O)n2C [Example 375, 1-((1-chloronaphthalen-2-yl)methyl)-3,7-dimethyl-8-(pyridin-4-ylamino)-1H-purine-2,6(3H,7H)-dione]",0.01 to 1

# The remaining lines, values ahead:
row,IC50 [µM],Compound
1,0.01 to 1,"Cn1c(Nc2cccc(CC(=O)O)c2)nc2c1c(=O)n(Cc1cc3c(Cl)cccc3[nH]1)c(=O)n2C [Example 339, 2-(3-((1-((4-chloro-1H-indol-2-yl)methyl)-3,7-dimethyl-2,6-dioxo-2,3,6,7-tetrahydro-1H-purin-8-yl)amino)phenyl)acetic acid]"
2,5 to 10,"Cn1c(=O)n(Cc2ccc(Cl)c(Cl)c2)c(=O)c2c1nc(NC1CCCC(C(=O)O)C1)n2CCC(=O)O (stereo not drawn) [Example 341, 3-(7-(2-carboxyethyl)-1-(3,4-dichlorobenzyl)-3-methyl-2,6-dioxo-2,3,6,7-tetrahydro-1H-purin-8-ylamino)cyclohexanecarboxylic acid]"
3,0.01 to 1,"Cc1cccc2[nH]c(Cn3c(=O)c4c(nc(NC5CCCC(C(=O)O)C5)n4C)n(C)c3=O)cc12 (stereo not drawn) [Example 342, 3-(3,7-dimethyl-1-((4-methyl-1H-indol-2-yl)methyl)-2,6-dioxo-2,3,6,7-tetrahydro-1H-purin-8-ylamino)cyclohexanecarboxylic acid]"
4,0.01 to 1,"Cn1c(Nc2ccc(CC(=O)O)cc2)nc2c1c(=O)n(Cc1cc3c(Cl)cccc3[nH]1)c(=O)n2C [Example 345, 2-[4-[[1-[(4-chloro-1H-indol-2-yl)methyl]-3,7-dimethyl-2,6-dioxo-purin-8-yl]amino]phenyl]acetic acid]"
5,5 to 10,"Cn1c(Nc2ccncc2)nc2c1c(=O)n(Cc1cc3c(Br)cccc3[nH]1)c(=O)n2C [Example 348, 1-((4-bromo-1H-indol-2-yl)methyl)-3,7-dimethyl-8-(pyridin-4-ylamino)-1H-purine-2, 6(3H,7H)-dione]"
6,5 to 10,"Cn1c(Nc2ccncc2)nc2c1c(=O)n(Cc1cc3c(C#N)cccc3[nH]1)c(=O)n2C [Example 350, 2-((3,7-dimethyl-2,6-dioxo-8-(pyridin-4-ylamino)-2,3,6,7-tetrahydro-1H-purin-1-yl)methyl)-1H-indole-4-carbonitrile]"
7,1 to 5,"Cn1c(Nc2cccc(C3CC(O)C3)n2)nc2c1c(=O)n(Cc1ccc(Cl)c(Cl)c1)c(=O)n2C (stereo not drawn) [Example 352, 1-(3,4-diclorobenzyl)-8-(6-(3-hydroxycyclobutyl)pyridine-2-ylamino)-3,7-dimethyl-1H-purine-2,6(3H,7H)-dione]"
8,0.01 to 1,"Cn1c(Nc2cnccn2)nc2c1c(=O)n(Cc1cc3c(Cl)cccc3[nH]1)c(=O)n2C [Example 354, 1-((4-chloro-1H-indol-2-yl)methyl)-3,7-dimethyl-8-(pyrazin-2-ylamino)-1H-purine-2,6(3H,7H)-dione]"
9,0.01 to 1,"Cn1c(CN)nc2c1c(=O)n(Cc1cc3c(Cl)cccc3[nH]1)c(=O)n2C [Example 358, 8-(aminomethyl)-1-[(4-chloro-1H-indol-2-yl)methyl]-3,7-dimethyl-purine-2,6-dione]"
10,0.01 to 1,"Cn1c(NCC(N)=O)nc2c1c(=O)n(Cc1cc3c(Cl)cccc3[nH]1)c(=O)n2C [Example 360, 2-(1-((4-chloro-1H-indol-2-yl)methyl)-3,7-dimethyl-2,6-dioxo-2,3,6,7-tetrahydro-1H-purin-8-ylamino)acetamide]"
11,0.01 to 1,"CCn1c(=O)n(Cc2cc3c(Cl)cccc3[nH]2)c(=O)c2c1nc(Nc1ccncc1)n2C [Example 361, 1-((4-chloro-1H-indol-2-yl)methyl)-3-ethyl-7-methyl-8-(pyridin-4-ylamino)-1H-purine-2,6(3H,7H)-dione]"
12,0.01 to 1,"Cn1c(Nc2ccncn2)nc2c1c(=O)n(Cc1cc3c(Cl)cccc3[nH]1)c(=O)n2C [Example 362, 1-((4-chloro-1H-indol-2-yl)methyl)-3,7-dimethyl-8-(pyrimidin-4-ylamino)-3,7-dihydro-1H-purine-2,6-dione]"
13,0.01 to 1,"Cc1cccc2cc(Cn3c(=O)c4c(nc(Nc5ccncc5)n4C)n(C)c3=O)[nH]c12 [Example 365, 3,7-dimethyl-1-[(7-methyl-1H-indol-2-yl)methyl]-8-(4-pyridylamino)purine-2,6-dione]"
14,0.01 to 1,"COc1cccc2[nH]c(Cn3c(=O)c4c(nc(Nc5ccncc5)n4C)n(C)c3=O)cc12 [Example 370, 1-((4-methoxy-1H-indol-2-yl)methyl)-3,7-dimethyl-8-(pyridin-4-ylamino)-1H-purine-2,6(3H,7H)-dione]"
15,0.01 to 1,"Cn1c(N2CCCC(N)C2)nc2c1c(=O)n(Cc1cc3c(Cl)cccc3[nH]1)c(=O)n2C (stereo not drawn) [Example 371, 8-(3-aminopiperidin-1-yl)-1-((4-chloro-1H-indol-2-yl)methyl)-3,7-dimethyl-1H-purine-2,6(3H,7H)-dione]"
16,0.01 to 1,"Cn1c(Nc2ccncc2)nc2c1c(=O)n(Cc1cc3cccc(Cl)c3[nH]1)c(=O)n2C [Example 373, 1-[(7-chloro-1H-indol-2-yl)methyl]-3,7-dimethyl-8-(4-pyridylamino)purine-2,6-dione]"
17,> 10,"Cn1c(Nc2ccncc2)nc2c1c(=O)n(Cc1cc3c(-c4ccccc4)cccc3[nH]1)c(=O)n2C [Example 374, 3,7-dimethyl-1-((4-phenyl-1H-indol-2-yl)methyl)-8-(pyridin-4-ylamino)-1H-purine-2,6(3H,7H)-dione]"
18,0.01 to 1,Cn1c(N2CCC(N)C2)nc2c1c(=O)n(Cc1cc3c(Cl)cccc3[nH]1)c(=O)n2C (stereo not drawn) [Example 376]
